Test results as given in ChEMBL document CHEMBL5321197, “Computational, in vitro and radiation-based in vivo studies on acetamide quinazolinone derivatives as new proposed purine nucleoside phosphorylase inhibitors for breast cancer” (Eur J Med Chem, 2023).

Tests used:
[1] = molecular target: T1, Purine nucleoside phosphorylase (Homo sapiens, UniProt P00491); test: Inhibition of PNP (unknown origin) by fluorescent based microplate reader analysis
T1 sequence (P00491 whole entry): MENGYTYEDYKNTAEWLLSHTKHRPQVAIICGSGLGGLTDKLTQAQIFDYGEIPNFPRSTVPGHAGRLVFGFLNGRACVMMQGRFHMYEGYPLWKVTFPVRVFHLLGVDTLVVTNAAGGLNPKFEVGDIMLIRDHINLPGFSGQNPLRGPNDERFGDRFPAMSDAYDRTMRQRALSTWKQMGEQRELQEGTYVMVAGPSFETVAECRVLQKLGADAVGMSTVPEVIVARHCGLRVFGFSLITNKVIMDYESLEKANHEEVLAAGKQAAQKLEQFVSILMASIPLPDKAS

MCF7 = test: Cytotoxicity against human MCF7 cells assessed as reduction in cell viability incubated for 24 hrs by MTT assay; assay type: functional, cell-based; conditions: MCF7, 24 h
MDA-MB-468 = test: Cytotoxicity against human MDA-MB-468 cells assessed as reduction in cell viability incubated for 24 hrs by MTT assay; assay type: functional, cell-based; conditions: MDA-MB-468, 24 h
MCF-10A = test: Cytotoxicity against human MCF-10A cells assessed as reduction in cell viability incubated for 24 hrs by MTT assay; assay type: functional, cell-based
T47D = test: Cytotoxicity against human T47D cells assessed as reduction in cell viability incubated for 24 hrs by MTT assay; assay type: functional, cell-based
BT-549 = test: Cytotoxicity against human BT-549 cells assessed as reduction in cell viability incubated for 24 hrs by MTT assay; assay type: functional, cell-based; conditions: BT-549, 24 h
MDA-MB-231 = test: Cytotoxicity against human MDA-MB-231 cells assessed as reduction in cell viability incubated for 24 hrs by MTT assay; assay type: functional, cell-based; conditions: MDA-MB-231, 24 h
Hs-578T = test: cells; assay type: functional, cell-based; conditions: Homo sapiens, 24 h
Description: Cytotoxicity against human Hs-578T cells assessed as reduction in cell viability incubated for 24 hrs by MTT assay

IC50 [1] [µM]	Compound	IC50 (MCF7) [µM]	also measured
3.18	COc1cc(NC(=O)CSc2nc3ccc(C)cc3c(=O)n2-c2ccccc2)cc(OC)c1OC	158	
1.32	COc1cc(NC(=O)CSc2nc3ccc(C)cc3c(=O)n2-c2ccccc2)cc(OC)c1	8.5	
	COc1cc(NC(=O)Cn2c(=S)n(-c3ccccc3)c(=O)c3cc(C)ccc32)cc(OC)c1	9.87	
0.255	COc1cc(NC(=O)Cn2c(=S)n(-c3ccccc3)c(=O)c3cc(C)ccc32)cc(OC)c1OC	3.73	
0.338	COc1ccc(NC(=O)Cn2c(=S)n(-c3ccccc3)c(=O)c3cc(C)ccc32)cc1OC	5.16	
1.13	Cc1ccc2nc(SCC(=O)NCCc3ccccc3)n(-c3ccccc3)c(=O)c2c1	104	
0.998	CC(=O)c1ccccc1NC(=O)Cn1c(=S)n(-c2ccccc2)c(=O)c2cc(C)ccc21	87.2	
5.63	COc1ccc(NC(=O)CSc2nc3ccc(C)cc3c(=O)n2-c2ccccc2)cc1OC	383	
2.12	CCOC(=O)c1ccccc1NC(=O)CSc1nc2ccc(C)cc2c(=O)n1-c1ccccc1	926	
0.159	CCOC(=O)c1ccccc1NC(=O)Cn1c(=S)n(-c2ccccc2)c(=O)c2cc(C)ccc21	0.99	IC50 (MDA-MB-468): 5.83 µM; IC50 (MCF-10A): 67.3 µM; IC50 (T47D): 4.54 µM; IC50 (BT-549): 6.84 µM; IC50 (MDA-MB-231): 6.01 µM; IC50 (Hs-578T): 22.3 µM
0.442	Cc1ccc2c(c1)c(=O)n(-c1ccccc1)c(=S)n2CC(=O)NCCc1ccccc1	48.1	
0.173	CCOC(=O)N1CCC(NC(=O)Cn2c(=S)n(-c3ccccc3)c(=O)c3cc(C)ccc32)CC1	1.77	
1.88	CCOC(=O)N1CCC(NC(=O)CSc2nc3ccc(C)cc3c(=O)n2-c2ccccc2)CC1	31	
3.35	CC(=O)c1ccccc1NC(=O)CSc1nc2ccc(C)cc2c(=O)n1-c1ccccc1	278	
	COc1cc2ncnc(Nc3ccc(F)c(Cl)c3)c2cc1OCCCN1CCOCC1 [GEFITINIB]		IC50 (T47D): 3.47 µM
0.041	Nc1nc2c(Cc3cccnc3)c[nH]c2c(=O)[nH]1 [PELDESINE]		
